From patent publication US7994204B2, “Binding inhibitor of sphingosine-1-phosphate” (Taisho Pharmaceutical Co., Ltd, priority 2006, dated 2011)

Assays:
human Edg-1 (S1P1) = target: T1, human Edg-1 (S1P1) (Homo sapiens, UniProt P21453); assay: S1P1 binding inhibition test (membrane, [33P]-S1P); details: for inhibition at 10 µM: compound 10 μM, [33P]-S1P 0.1 nM, human Edg-1 (S1P1) HEK-293 membrane fraction, read-out: Binding test (membrane) % inhibition (10 μM); for IC50: membrane system binding test, various concentrations
T1 construct: expressed in transfected cells; host or cells: HEK-293
In short: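 Membranes from Edg-1 (S1P1)-expressing HEK-293 cells incubated 1 h at 30 °C in pH 7.4 Tris buffer with 0.1 nM [33P]-S1P and compound (10^−5 M, or various concentrations for IC50). Filter-bound radioactivity counted; background from non-transfected HEK-293 membranes; inhibition = [1−(A−C)/(B−C)]×100.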

T1 sequence (P21453 whole entry): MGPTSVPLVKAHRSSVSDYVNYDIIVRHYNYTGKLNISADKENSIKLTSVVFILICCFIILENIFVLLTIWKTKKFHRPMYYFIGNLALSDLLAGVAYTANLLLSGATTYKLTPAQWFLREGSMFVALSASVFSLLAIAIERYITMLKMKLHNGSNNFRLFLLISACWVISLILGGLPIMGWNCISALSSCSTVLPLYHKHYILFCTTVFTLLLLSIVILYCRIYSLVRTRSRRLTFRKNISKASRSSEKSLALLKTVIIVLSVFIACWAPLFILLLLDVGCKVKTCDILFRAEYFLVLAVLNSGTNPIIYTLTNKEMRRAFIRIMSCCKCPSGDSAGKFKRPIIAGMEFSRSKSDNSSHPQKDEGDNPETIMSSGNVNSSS

inhibition at 10 µM (human Edg-1 (S1P1)) [%]	melting point [°C]	IC50 (human Edg-1 (S1P1)) [nM]	SMILES
87	133.5 to 134.5	–	CCn1c(C(C)NS(=O)(=O)c2ccc(Cl)c(Cl)c2)cnc1OCC(F)(F)F (centres unmarked) [Compound 224]
83.2	195 to 196	–	CCOc1ncc(C(C)NS(=O)(=O)c2ccc(Cl)c(Cl)c2)n1CC (centres unmarked) [Compound 219]
88.9	123.5 to 124	–	CCn1c(C(Cc2ccc(C)cc2)NS(=O)(=O)c2ccc(Cl)c(Cl)c2)cnc1Oc1ccc(F)cc1 (centres unmarked) [Compound 196]
97.4	135 to 136	–	CCn1c(C(C)NS(=O)(=O)c2ccc3ccc(Cl)cc3c2)cnc1Oc1cccc(N2CCN(C)CC2)c1 (centres unmarked) [Compound 243]
96.8	213.5 to 215.5	≤ 70	CCn1c(C(C)NS(=O)(=O)c2ccc(Cl)c(Cl)c2)cnc1Oc1cccc(NC(C)=O)c1 (centres unmarked) [Compound 236]
98.9	122 to 124	–	CCc1nc(Oc2ccc(F)cc2)n(CC)c1C(C)NS(=O)(=O)c1ccc(Cl)c(Cl)c1 (centres unmarked) [Compound 225]
101	118 to 120	23	CCC(NS(=O)(=O)c1ccc2c(Cl)cccc2c1)c1cnc(Oc2ccc(F)cc2)n1CC (centres unmarked) [Compound 192]
99.8	156 to 157	≤ 70	CCn1c(C(C)NS(=O)(=O)c2ccc(Cl)c(Cl)c2)cnc1Oc1ccc(F)cc1 (centres unmarked) [Compound 186]
100	179 to 180	–	CCn1c(C(C)NS(=O)(=O)c2ccc(Cl)c(Cl)c2)cnc1Oc1cc(C)nc(C)c1 (centres unmarked) [Compound 215]
52.6	101 to 102	–	CCn1c(C(NS(=O)(=O)c2ccc(Cl)c(Cl)c2)C(C)C)cnc1Oc1ccc(F)cc1 (centres unmarked) [Compound 221]

Further lines, the molecule ahead of its results:

SMILES	inhibition at 10 µM (human Edg-1 (S1P1)) [%]	melting point [°C]	IC50 (human Edg-1 (S1P1)) [nM]
CCn1c(C(Cc2ccccc2)NS(=O)(=O)c2ccc(Cl)c(Cl)c2)cnc1Oc1ccc(F)cc1 (centres unmarked) [Compound 193]	98.6	114.5 to 115.5	–
CCn1c(C(Cc2ccc(F)cc2)NS(=O)(=O)c2ccc3c(Cl)cccc3c2)cnc1Oc1ccc(F)cc1 (centres unmarked) [Compound 200]	97.1	175 to 176	17
CCn1c(C(Cc2ccc(F)cc2)NS(=O)(=O)c2ccc(Cl)c(Cl)c2)cnc1Oc1ccc(F)cc1 (centres unmarked) [Compound 199]	97.3	145.5 to 146.5	–
CCn1c(C(C)NS(=O)(=O)/C=C/c2ccccc2)cnc1Oc1cccc(N2CCN(C)CC2)c1 (centres unmarked) [Compound 245]	98.9	141 to 143	–
CCn1c(C(C)NS(=O)(=O)c2ccc3cc(C)ccc3c2)cnc1Oc1cccc(N2CCN(C)CC2)c1 (centres unmarked) [Compound 242]	94.5	175 to 177	–
CCn1c(C(C)NS(=O)(=O)c2ccc(Cl)c(Cl)c2)cnc1Oc1ccc(OC)cc1 (centres unmarked) [Compound 203]	102	146.5 to 148	23.5
CCn1c(C(C)NS(=O)(=O)c2ccc3c(Cl)cccc3c2)cnc1Oc1ccc(F)cc1 (centres unmarked) [Compound 187]	101	138 to 141	≤ 35
CCn1c(C(C)NS(=O)(=O)c2ccc(Cl)c(Cl)c2)cnc1Oc1ccc2ccccc2c1 (centres unmarked) [Compound 206]	98.5	172 to 173	–
CCn1c(C(C)NS(=O)(=O)c2ccc(Cl)c(Cl)c2)cnc1OC1CCCCC1 (centres unmarked) [Compound 216]	92	180 to 181	–
CCn1c(C(C)NS(=O)(=O)c2ccc3c(Cl)ccc(Cl)c3c2)cnc1Oc1cccc(N2CCN(C)CC2)c1 (centres unmarked) [Compound 246]	101	220 to 223	≤ 15
CC(NS(=O)(=O)c1ccc2c(Cl)cccc2c1)c1cnc(Oc2ccc(F)cc2)n1C (centres unmarked) [Compound 212]	92	134 to 135	–
CCn1c(C(C)NS(=O)(=O)c2ccc(Cl)c(Cl)c2)cnc1Oc1cc(C(F)(F)F)n(C)n1 (centres unmarked) [Compound 217]	96.3	146 to 148	–
CCn1c(C(C)NS(=O)(=O)c2ccc3cccc(Cl)c3c2)cnc1Oc1cccc(N2CCN(C)CC2)c1 (centres unmarked) [Compound 247]	99.9	196 to 198	≤ 15
CCn1c(C(C)NS(=O)(=O)c2ccc(Cl)c(Cl)c2)cnc1OCCCCCCN(C)C (centres unmarked) [Compound 235]	94	137.5 to 142.5	58.5
CCn1c(C(C)NS(=O)(=O)c2ccc3c(Cl)cccc3c2)cnc1Oc1cccc(N2CCN(C)CC2)c1 (centres unmarked) [Compound 185]	100	205.5 to 206	3.7
CCn1c(C(C)NS(=O)(=O)c2ccc(Cl)c(Cl)c2)cnc1OCc1ccccc1 (centres unmarked) [Compound 230]	90.7	102 to 103	–
CCn1c(C(C)NS(=O)(=O)c2ccc(Cl)c(Cl)c2)cnc1OC(C)C (centres unmarked) [Compound 222]	87.6	178 to 180	–
CCn1c(C(Cc2ccc(Cl)cc2)NS(=O)(=O)c2ccc(Cl)c(Cl)c2)cnc1Oc1ccc(F)cc1 (centres unmarked) [Compound 205]	94.4	155.5 to 156.5	–
CCn1c(C(Cc2ccc(C)cc2)NS(=O)(=O)c2ccc3c(Cl)cccc3c2)cnc1Oc1ccc(F)cc1 (centres unmarked) [Compound 197]	95.3	166 to 167	–
